The test system of one assay is A549. The experiment in a line: Colony formation / cell survival assay, A549 lung cancer cells. The format is cell-based. The following applies: Homo sapiens, A549, 4 h. On the procedure: The control flasks are treated with DMSO only. […] The remaining flasks are left untouched.
The cells are monitored for colony formation. […] The plating efficiency for each dish is then calculated.
The compounds tested were β-lapachone, 3-hydroxy-β-lapachone, 3,3-DINOR-dunnione (designated "Drug A" in the figures), 3-NOR-dunnione (designated "Drug B" in the figures) and dunnione itself (designated "Drug C" in the figures). A legend for the figures is provided below. The cell lines were cultured and the compounds evaluated according to the standard protocol described above.

Assay [1] concerns human prostate cancer cell line PC-3. As to the kind of experiment: IC50 determination (DNA amount and anchorage-dependent colony formation), prostate cancer PC-3. The class given is cell-based. Particulars: PC-3, 24 hours exposure. The method, then: (§1) Table 15 lists the IC50 determinations of Drugs B, C, and D against the human prostate cancer cell line PC-3 and the human breast cancer cell line MCF7. IC50 calculations for each cell line were determined by DNA amount and anchorage-dependent colony formation (CF) as described elsewhere. (See Planchon et al. Cancer Res. 55, 3706 (1995), incorporated herein by reference.) In short, IC50 calculations for each cell line were determined by DNA amount and anchorage-dependent colony formation (CF) assays. For the CF assay, cells were seeded at 500 viable cells/well in 6-well plates and incubated overnight, then treated with equal volumes of media containing β-lapachone at final concentrations ranging from 0.005 to 50 μM in half-log increments (controls were treated with 0.25% DMSO, equivalent to the highest dose of β-lapachone used) for 4 hours or for continuous 12 hour exposures. Plates (3 wells/condition) were stained with crystal violet, and colonies of >50 normal-appearing cells were enumerated. IC50 values for various cells were calculated using drug doses with numbers of colonies surrounding 50% of control. For DNA assays, plates were harvested for IC50 determinations 8 days after treatment using a CytoFluor 2350 fluorescence measurement system (Millipore). Six-well samplings were included in the calculation of DNA fluor units for each dose. A graph of β-lapachone dose versus percentage control DNA in fluor units was used to calculate each IC50. The cells were exposed for 24 hours to the tricyclic naphthoquinones. All experiments were repeated at least twice, each in duplicate. PC-3 is an androgen-independent prostate cancer cell line.

Assay [2] deals with human breast cancer cell line MCF7. As to the kind of experiment: IC50 determination (DNA amount and anchorage-dependent colony formation), breast cancer MCF7. The format is cell-based. The following applies: MCF7, 24 hours exposure. The method, then: as §1
For a further assay, the system named is Topoisomerase II. As to the kind of experiment: Topoisomerase II-mediated DNA cleavage (electrophoresis). The class given is biochemical, mammalian. Particulars: gels of FIGS. 9A and 9B. The method, then:
Analogous experiments to assay the ability of several of the compounds described herein to induce Topoisomerase II (Topo II)-mediated DNA cleavage were also performed. The results of one such experiment are depicted in the electrophoretegram of FIGS. 9A and 9B. Here, DNA was incubated in the presence of Topo II and several different compounds described herein.
A legend for the compounds which were tested in FIGS. 9A and 9B is as follows: [drawing 25] Lane 1: R=H (β-lapachone) Lane 2: R=OH
In the far left-hand lane of […], DNA alone is shown. Moving to the right, the next lane contains DNA and Topo II (mammalian). Lanes 1-9 of FIGS. 9A and 9B contain a series of concentrations of drugs (see Legend, above) in the presence of DNA and Topo II. Each set of lanes for each drug spans 3 orders of magnitude in concentration (0.1, 1, 10, and 100 μM). […] However, Lanes 1-9, which contain DNA, Topo II, and a drug according to the present invention, show extensive DNA cleavage.

For a further assay, the system named is MCF7. As to the kind of experiment: Colony formation / cell survival assay, MCF7 breast cancer cells. The following applies: Homo sapiens, MCF7, 4 h.

For the compound `CC1OC2=C(C(=O)C(=O)c3ccccc32)C1(C)C` (stereo not shown) [Drug C, 2,3,3-trimethyl-2,3,4,5-tetrahydro-naphtho(2,3-b)dihydrofuran-6,7-dione], the IC50 in the assay with A549 (A549, 4 h exposure, FIG. 5, read-out: ED50 (the source's name)) is 4.3 µM; in assay [1], 0.6 µM; in assay [2], 0.7 µM; in the assay with MCF7 (read-out: ED50, MCF7, 4 h exposure, FIG. 8), 1.4 µM. Also, the viability at 1 µM in the assay on A549 (read-out: Fraction of Cell Survival, A549, FIG. 5, 1 μM, 4 h) turned out to be 110%; in the assay with MCF7 (read-out: Fraction of Cell Survival, MCF7, FIG. 8, 1 μM, 4 h), 55.8%. The viability at 5 µM came to 40% in the assay with A549 (read-out: Fraction of Cell Survival, A549, FIG. 5, 5 μM, 4 h) and 0.65% in the assay on MCF7 (read-out: Fraction of Cell Survival, MCF7, FIG. 8, 5 μM, 4 h). For the same compound, the viability at 10 µM in the assay with A549 (read-out: Fraction of Cell Survival, A549, FIG. 5, 10 μM, 4 h) stood at 0%; in the assay with MCF7 (read-out: Fraction of Cell Survival, MCF7, FIG. 8, 10 μM, 4 h) it was 0.32%. Moreover, the viability at 50 µM in the assay on A549 (read-out: Fraction of Cell Survival, A549, FIG. 5, 50 μM, 4 h) is 0%; in the assay with MCF7 (read-out: Fraction of Cell Survival, MCF7, FIG. 8, 50 μM, 4 h), 0.65%. The “intracellular target (in words)” value in the assay on Topoisomerase II is “Topo II is an intracellular target”.

These data come from patent publication US5824700A, “Ortho-quinone derivatives novel synthesis therefor and their use in the inhibition of neoplastic cell growth” (Wisconsin Alumni Research Foundation, priority 1996, dated 1998).
